Measurements published in patent US10450356B2, “PRAME derived peptides and immunogenic compositions comprising these” (Academisch Ziekenhuis Leiden H.O.D.N. LUMC, priority 2007, dated 2019).

Biological target: T1, 20S proteasomes purified from a B-LCL cell line (immunoproteasomes) (Homo sapiens, UniProt P28062+P28065+P40306)
T1 construct: 20S proteasomes were purified from a B-LCL cell line; endogenous in cells; purified after Groettrup et al. 1995
Assay: In vitro proteasome mediated cleavage analysis
Type: biochemical
Parameters: key to Intact in fragment / Intact Fragment: intact epitope found in digestion fragments: (+), present; (-), not present; key to Processing C-term: generation by proteasome-mediated digestion of fragments containing the correct C-terminus: (++) fragments present for >5%; (+) present for <5%; (-) no fragments containing the C-term. were found
Conditions: for Processing C-term: generation by proteasome-mediated digestion of fragments containing the correct C-terminus: 1 h digestion; for Intact Fragment: intact epitope found in digestion fragments: after 1 h digestion; for C-term. generation: generation of C-terminus of the epitope after 1 h digestion; for Intact in fragment: intact epitope found in digestion fragments after 1 h digestion
In short: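 Cleavage products were analysed by on-line nanoESI Q-TOF mass spectrometry, and relative fragment amounts came from peak intensities. Digests contained 20 μg of 27-mer peptide and 1 μg of 20S immunoproteasome purified from B-LCL cells. They ran at 37° C for 1, 4 or 24 h and were stopped with trifluoroacetic acid.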

| Structure (SMILES) | Processing C-term: generation by proteasome-mediated digestion of fragments containing the correct C-terminus | Intact Fragment: intact epitope found in digestion fragments | C-term. generation | Intact in fragment |
| --- | --- | --- | --- | --- |
| CSCC[C@H](NC(=O)[C@@H](NC(=O)CNC(=O)[C@H](CO)NC(=O)[C@H](CC(C)C)NC(=O)[C@@H](N)CO)C(C)C)C(=O)N[C@@H](CC(C)C)C(=O)N[C@H](C(=O)N[C@@H](CC(=O)O)C(=O)N[C@H](C(=O)O)C(C)C)[C@@H](C)O | - | - |  |  |
| CC[C@H](C)[C@H](NC(=O)[C@H](CCSC)NC(=O)[C@H](CCC(N)=O)NC(=O)CNC(=O)[C@H](CC(C)C)NC(=O)[C@H](Cc1ccc(O)cc1)NC(=O)[C@@H]1CCCN1C(=O)[C@H](CO)NC(=O)[C@H](Cc1ccccc1)NC(=O)[C@@H](N)CCCCN)C(=O)O | - | - |  |  |
| CC[C@H](C)[C@H](NC(=O)[C@H](C)N)C(=O)N[C@@H](C)C(=O)N[C@@H](C)C(=O)N[C@@H](CC(C)C)C(=O)N[C@@H](CCC(=O)O)C(=O)N[C@@H](CC(C)C)C(=O)N[C@@H](CC(C)C)C(=O)N1CCC[C@H]1C(=O)N[C@@H](CCCNC(=N)N)C(=O)O | - | - |  |  |
| CC(C)C[C@H](NC(=O)[C@H](Cc1ccc(O)cc1)NC(=O)[C@H](CO)NC(=O)[C@H](Cc1ccccc1)NC(=O)[C@H](CC(C)C)NC(=O)[C@H](CCC(=O)O)NC(=O)[C@H](CC(=O)O)NC(=O)[C@H](CS)NC(=O)[C@H](C)NC(=O)CN)C(=O)O | - | - |  |  |
| CC(C)C[C@H](NC(=O)[C@@H](NC(=O)[C@H](Cc1c[nH]cn1)NC(=O)[C@@H](NC(=O)[C@H](CC(C)C)NC(=O)[C@H](CC(N)=O)NC(=O)[C@H](CO)NC(=O)[C@H](CC(C)C)NC(=O)CN)[C@@H](C)O)C(C)C)C(=O)O | + ((+) present for <5%) | - |  |  |
| CC[C@H](C)[C@H](NC(=O)[C@H](CO)NC(=O)[C@@H](NC(=O)[C@H](CO)NC(=O)[C@H](CC(N)=O)NC(=O)CNC(=O)[C@H](Cc1ccc(O)cc1)NC(=O)[C@H](Cc1ccccc1)NC(=O)[C@@H](N)CO)[C@@H](C)CC)C(=O)O | ++ ((++) fragments present for >5%) | + | ++ (abundant (++) present for >5%) | + |
| CSCC[C@H](NC(=O)[C@@H](NC(=O)[C@H](CC(=O)O)NC(=O)CNC(=O)[C@H](CCC(=O)O)NC(=O)[C@H](CO)NC(=O)[C@H](CC(C)C)NC(=O)[C@@H](N)CCCNC(=N)N)C(C)C)C(=O)N[C@@H](Cc1c[nH]cn1)C(=O)N[C@@H](CC(C)C)C(=O)O |  |  | + (low abundant (+) present for <5%) | + |
| CC(C)C[C@H](NC(=O)[C@H](Cc1ccc(O)cc1)NC(=O)[C@@H]1CCCN1C(=O)[C@H](CO)NC(=O)[C@H](Cc1ccccc1)NC(=O)[C@H](CCCCN)NC(=O)[C@H](C)NC(=O)[C@H](CC(C)C)NC(=O)[C@@H](N)[C@@H](C)O)C(=O)O | + ((+) present for <5%) | + | + (low abundant (+) present for <5%) | + |
| CC[C@H](C)[C@H](NC(=O)[C@H](CCSC)NC(=O)[C@H](CCC(N)=O)NC(=O)CNC(=O)[C@H](CC(C)C)NC(=O)[C@@H](N)Cc1ccc(O)cc1)C(=O)N[C@@H](CC(N)=O)C(=O)N[C@@H](CC(C)C)C(=O)N[C@@H](CCCNC(=N)N)C(=O)N[C@@H](CCCNC(=N)N)C(=O)O | - | - |  |  |
| CC(C)C[C@H](NC(=O)[C@@H](NC(=O)[C@@H]1CCCN1)[C@@H](C)O)C(=O)N[C@@H](C)C(=O)N[C@@H](CCCCN)C(=O)N[C@@H](Cc1ccccc1)C(=O)N[C@@H](CO)C(=O)N1CCC[C@H]1C(=O)N[C@@H](Cc1ccc(O)cc1)C(=O)O | - | - |  |  |
